# Source: US9149038B2, “4-amino-6-(heterocyclic)picolinates and 6-amino-2-(heterocyclic)pyrimidine-4-carboxylates and their use as herbicides” (Dow AgroSciences LLC, priority 2013, dated 2015)
# Where two headings read alike, the source gives them in different places.
# System: Direct Seeded Rice and weed species
# Experiment: Postemergence herbicidal activity in direct seeded rice, visual rating after 20-22 days and probit GR20/GR50/GR80/GR90 (Table 14)
# Assay type: in vivo
# Conditions: for pest or weed control at 17.5 g/ha / pest or weed control at 35 g/ha / pest or weed control at 70 g/ha: post-emergence, 504 h, postemergence; for pest or weed control at 17.5 g/ha: 17.5 g ai/ha; for pest or weed control at 35 g/ha: 35 g ai/ha; for pest or weed control at 70 g/ha: 70 g ai/ha
# Summary of the method: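 Rice and weeds grown in loam–sand soil (pH about 8.1) in greenhouse to 2nd–3rd true leaf, then sprayed postemergence at 187 L/ha in acetone/DMSO with 1.25% (v/v) Agri-dex crop oil. Injury rated visually 0–100 after 20-22 days versus untreated plants; GR20, GR50, GR80, GR90 obtained by probit analysis across dose rates.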
# [1] = BRAPP (broadleaf signalgrass, Brachiaria platyphylla), read-out: Visual Growth Reduction (%) 21 Days After Application BRAPP
# [2] = CYPDI (small-flower flatsedge, Cyperus difformis), read-out: Visual Growth Reduction (%) 21 Days After Application CYPDI
# [3] = CYPES (yellow nutsedge, Cyperus esculentus), read-out: Visual Growth Reduction (%) 21 Days After Application CYPES
# [4] = CYPIR (rice flatsedge, Cyperus iria), read-out: Visual Growth Reduction (%) 21 Days After Application CYPIR
# [5] = DIGSA (large crabgrass, Digitaria sanguinalis), read-out: Visual Growth Reduction (%) 21 Days After Application DIGSA
# [6] = ECHCG (barnyardgrass, Echinochloa crus-galli), read-out: Visual Growth Reduction (%) 21 Days After Application ECHCG
# [7] = ECHCO (junglerice, Echinochloa colonum), read-out: Visual Growth Reduction (%) 21 Days After Application ECHCO
# [8] = LEFCH (Chinese sprangletop, Leptochloa chinensis), read-out: Visual Growth Reduction (%) 21 Days After Application LEFCH
# [9] = ORYSJ (Oryza sativa, rice crop), read-out: Visual Growth Reduction (%) 21 Days After Application ORYSJ
# [10] = ORYSK (Oryza sativa, rice crop), read-out: Visual Growth Reduction (%) 21 Days After Application ORYSK
# [11] = SCPJU (Japanese bulrush, Schoenoplectus juncoides Roxb.), read-out: Visual Growth Reduction (%) 21 Days After Application SCPJU
# [12] = SEBEX (hemp sesbania, Sesbania exaltata), given as number, read-out: Visual Growth Reduction (%) 21 Days After Application SEBEX
smiles,measurement,setting,value
Nc1c(F)c(-c2cc3c(cc2F)OC(F)(F)O3)nc(C(=O)O)c1Cl [Compound 13],GR50 BRAPP,"BRAPP (Brachiaria platyphylla), probit analysis, dose for 50 percent growth reduction",3 g ai/ha
same,GR80 BRAPP,"BRAPP (Brachiaria platyphylla), probit analysis, dose for 80 percent growth reduction",5 g ai/ha
same,GR90 BRAPP,"BRAPP (Brachiaria platyphylla), probit analysis, dose for 90 percent growth reduction",7 g ai/ha
same,GR50 CYPDI,"CYPDI (Cyperus difformis), probit analysis, dose for 50 percent growth reduction",0.04 g ai/ha
same,GR80 CYPDI,"CYPDI (Cyperus difformis), probit analysis, dose for 80 percent growth reduction",1 g ai/ha
same,GR90 CYPDI,"CYPDI (Cyperus difformis), probit analysis, dose for 90 percent growth reduction",2 g ai/ha
same,GR50 CYPES,"CYPES (Cyperus esculentus), probit analysis, dose for 50 percent growth reduction",0.04 g ai/ha
same,GR50 CYPIR,"CYPIR (Cyperus iria), probit analysis, dose for 50 percent growth reduction",0.04 g ai/ha
same,GR50 DIGSA,"DIGSA (Digitaria sanguinalis), probit analysis, dose for 50 percent growth reduction",0.05 g ai/ha
same,GR80 DIGSA,"DIGSA (Digitaria sanguinalis), probit analysis, dose for 80 percent growth reduction",1 g ai/ha
same,GR90 DIGSA,"DIGSA (Digitaria sanguinalis), probit analysis, dose for 90 percent growth reduction",6 g ai/ha
same,GR50 ECHCG,"ECHCG (Echinochloa crus-galli), probit analysis, dose for 50 percent growth reduction",0.01 g ai/ha
same,GR80 ECHCG,"ECHCG (Echinochloa crus-galli), probit analysis, dose for 80 percent growth reduction",1 g ai/ha
same,GR90 ECHCG,"ECHCG (Echinochloa crus-galli), probit analysis, dose for 90 percent growth reduction",10 g ai/ha
same,GR50 ECHCO,"ECHCO (Echinochloa colonum), probit analysis, dose for 50 percent growth reduction",1 g ai/ha
same,GR80 ECHCO,"ECHCO (Echinochloa colonum), probit analysis, dose for 80 percent growth reduction",3 g ai/ha
same,GR90 ECHCO,"ECHCO (Echinochloa colonum), probit analysis, dose for 90 percent growth reduction",6 g ai/ha
same,GR50 LEFCH,"LEFCH (Leptochloa chinensis), probit analysis, dose for 50 percent growth reduction",14 g ai/ha
same,GR80 LEFCH,"LEFCH (Leptochloa chinensis), probit analysis, dose for 80 percent growth reduction",25 g ai/ha
same,GR90 LEFCH,"LEFCH (Leptochloa chinensis), probit analysis, dose for 90 percent growth reduction",33 g ai/ha
same,GR20 ORYSJ,"ORYSJ (Oryza sativa, rice crop), probit analysis, dose for 20 percent growth reduction",6 g ai/ha
same,GR20 ORYSK,"ORYSK (Oryza sativa, rice crop), probit analysis, dose for 20 percent growth reduction",15 g ai/ha
same,GR50 SCPJU,"SCPJU (Schoenoplectus juncoides Roxb.), probit analysis, dose for 50 percent growth reduction",0.0001 g ai/ha
same,GR80 SCPJU,"SCPJU (Schoenoplectus juncoides Roxb.), probit analysis, dose for 80 percent growth reduction",0.0001 g ai/ha
same,GR90 SCPJU,"SCPJU (Schoenoplectus juncoides Roxb.), probit analysis, dose for 90 percent growth reduction",0.0001 g ai/ha
same,GR50 SEBEX,"SEBEX (Sesbania exaltata), probit analysis, dose for 50 percent growth reduction",11 g ai/ha
same,GR80 SEBEX,"SEBEX (Sesbania exaltata), probit analysis, dose for 80 percent growth reduction",16 g ai/ha
same,GR90 SEBEX,"SEBEX (Sesbania exaltata), probit analysis, dose for 90 percent growth reduction",20 g ai/ha
same,pest or weed control at 17.5 g/ha,[1],95 to 100%
same,pest or weed control at 35 g/ha,[1],95 to 100%
same,pest or weed control at 70 g/ha,[1],95 to 100%
same,pest or weed control at 17.5 g/ha,[2],95 to 100%
same,pest or weed control at 35 g/ha,[2],95 to 100%
same,pest or weed control at 70 g/ha,[2],95 to 100%
same,pest or weed control at 17.5 g/ha,[3],95 to 100%
same,pest or weed control at 35 g/ha,[3],95 to 100%
same,pest or weed control at 70 g/ha,[3],95 to 100%
same,pest or weed control at 17.5 g/ha,[4],95 to 100%
same,pest or weed control at 35 g/ha,[4],95 to 100%
same,pest or weed control at 70 g/ha,[4],95 to 100%
same,pest or weed control at 17.5 g/ha,[5],95 to 100%
same,pest or weed control at 35 g/ha,[5],95 to 100%
same,pest or weed control at 70 g/ha,[5],95 to 100%
same,pest or weed control at 17.5 g/ha,[6],95 to 100%
same,pest or weed control at 35 g/ha,[6],85 to 94%
same,pest or weed control at 70 g/ha,[6],95 to 100%
same,pest or weed control at 17.5 g/ha,[7],95 to 100%
same,pest or weed control at 35 g/ha,[7],95 to 100%
same,pest or weed control at 70 g/ha,[7],95 to 100%
same,pest or weed control at 17.5 g/ha,[8],60 to 74%
same,pest or weed control at 35 g/ha,[8],95 to 100%
same,pest or weed control at 70 g/ha,[8],95 to 100%
same,pest or weed control at 17.5 g/ha,[9],45 to 59%
same,pest or weed control at 35 g/ha,[9],85 to 94%
same,pest or weed control at 70 g/ha,[9],95 to 100%
same,pest or weed control at 17.5 g/ha,[10],0 to 29%
same,pest or weed control at 35 g/ha,[10],45 to 59%
same,pest or weed control at 70 g/ha,[10],60 to 74%
same,pest or weed control at 17.5 g/ha,[11],95 to 100%
same,pest or weed control at 35 g/ha,[11],95 to 100%
same,pest or weed control at 70 g/ha,[11],95 to 100%
same,pest or weed control at 17.5 g/ha,[12],95%
same,pest or weed control at 35 g/ha,[12],100%
same,pest or weed control at 70 g/ha,[12],100%
